Source: ChEMBL document CHEMBL1201862, “PubChem BioAssay data set” (2004)
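The compound was tested at five concentrations on cells cultured in 96-well plates, with a 48-hour exposure period. At the GI50, growth is halved.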 Calls of active or inactive are those of the source. Rule as the data show it: active = GI50 up to about 1.1 µM and inactive = higher.

Key:
Experiment in all cases: NCI anticancer screen, dose series, 48 h
LOX IMVI = system: LOX IMVI
IGROV-1 = system: IGROV-1
NCI-H23 = system: NCI-H23
MCF7 = system: MCF7
HCT-116 = system: HCT-116
SK-MEL-28 = system: SK-MEL-28
TK-10 = system: TK-10
ACHN = system: ACHN
UACC-257 = system: UACC-257
OVCAR-3 = system: OVCAR-3
UACC-62 = system: UACC-62
786-0 = system: 786-0
NCI/ADR-RES = system: NCI/ADR-RES
SK-MEL-2 = system: SK-MEL-2
SNB-19 = system: SNB-19
SF-295 = system: SF-295
SN12C = system: SN12C
SF-539 = system: SF-539
RPMI-8226 = system: RPMI-8226
K562 = system: K562

SMILES | GI50 (LOX IMVI) | GI50 (IGROV-1) | GI50 (NCI-H23) | GI50 (MCF7) | GI50 (HCT-116) | GI50 (SK-MEL-28) | GI50 (TK-10) | GI50 (ACHN) | GI50 (UACC-257) | GI50 (OVCAR-3) | GI50 (UACC-62) | GI50 (786-0) | GI50 (NCI/ADR-RES) | GI50 (SK-MEL-2) | GI50 (SNB-19) | GI50 (SF-295) | GI50 (SN12C) | GI50 (SF-539) | GI50 (RPMI-8226) | GI50 (K562)
CN(Cc1cnc2nc(N)nc(N)c2n1)c1ccc(C(=O)NC(CCC(=O)NC(CC(P(=O)(O)O)P(=O)(O)O)C(=O)O)C(=O)O)cc1 (stereo not given) | > 100 µM (inactive) | > 100 µM (inactive) | > 100 µM (inactive) | > 100 µM (inactive) | > 100 µM (inactive) | > 100 µM (inactive) | > 100 µM (inactive) | > 100 µM (inactive) | > 100 µM (inactive) | > 100 µM (inactive) | > 100 µM (inactive) | > 100 µM (inactive) | > 100 µM (inactive) | > 100 µM (inactive) | > 100 µM (inactive) | > 100 µM (inactive) | > 100 µM (inactive) |  |  | 
CC1(C)C(=O)/C=C\C(=O)C(C)(C)C(=O)/C=C\C(=O)C(C)(C)C(=O)/C=C\C(=O)C(C)(C)C(=O)/C=C\C1=O | 25.2 µM (inactive) | 34.4 µM (inactive) | 21.4 µM (inactive) | 45.9 µM (inactive) | 15.7 µM (inactive) | 26.5 µM (inactive) | > 55.2 µM (inactive) | 26.8 µM (inactive) | 23.3 µM (inactive) | 23.8 µM (inactive) | 21.9 µM (inactive) | 24.1 µM (inactive) |  | 25.2 µM (inactive) | 52.5 µM (inactive) | 23.6 µM (inactive) | 24.3 µM (inactive) | 28 µM (inactive) | 4.97 µM (inactive) | 5.43 µM (inactive)
O=S(=O)(/N=C1/S/C(=N\c2ccccc2)N(c2ccccc2)/C1=N/S(=O)(=O)c1ccccc1)c1ccccc1 |  | 20.5 µM (inactive) | 16.4 µM (inactive) | 20.5 µM (inactive) | 17.6 µM (inactive) | 16.6 µM (inactive) | 30.4 µM (inactive) | 19.5 µM (inactive) | 19.1 µM (inactive) |  | 17.2 µM (inactive) | 19 µM (inactive) |  | 15.2 µM (inactive) | 24 µM (inactive) |  | 12.4 µM (inactive) |  | 17.7 µM (inactive) | 23.9 µM (inactive)
NNC(=O)CC(=O)Nc1ccc(S(=O)(=O)c2ccc(NC(=O)CC(=O)NN)cc2)cc1 |  | > 100 µM (inactive) | > 100 µM (inactive) |  | > 100 µM (inactive) | > 100 µM (inactive) | > 100 µM (inactive) | > 100 µM (inactive) | > 100 µM (inactive) | > 100 µM (inactive) | > 100 µM (inactive) | > 100 µM (inactive) | > 100 µM (inactive) | > 100 µM (inactive) | > 100 µM (inactive) | > 100 µM (inactive) | > 100 µM (inactive) | > 100 µM (inactive) | > 100 µM (inactive) | > 100 µM (inactive)
Nc1ccccc1.O=P(O)(O)c1ccccc1 | > 100 µM (inactive) | > 100 µM (inactive) | > 100 µM (inactive) | > 100 µM (inactive) | > 100 µM (inactive) | > 100 µM (inactive) | > 100 µM (inactive) | > 100 µM (inactive) | > 100 µM (inactive) | > 100 µM (inactive) | > 100 µM (inactive) | > 100 µM (inactive) | > 100 µM (inactive) | > 100 µM (inactive) | > 100 µM (inactive) | > 100 µM (inactive) | > 100 µM (inactive) |  | > 100 µM (inactive) | > 100 µM (inactive)
CSc1nc(NC(C)C)c2c(n1)Sc1nc3ccccc3n1C2O (stereo not given) | 7 µM (inactive) | 8.04 µM (inactive) | 4.79 µM (inactive) | 0.0465 µM (active) | 4.13 µM (inactive) | 3.34 µM (inactive) | 14.3 µM (inactive) | 7.93 µM (inactive) | 40.9 µM (inactive) | 2.51 µM (inactive) |  | 4.11 µM (inactive) | 2.56 µM (inactive) | 7.73 µM (inactive) |  | 3.45 µM (inactive) | 9.57 µM (inactive) |  | 0.0432 µM (active) | 3.15 µM (inactive)
COc1ccc(NCC#N)cc1 | > 100 µM (inactive) | > 100 µM (inactive) | > 100 µM (inactive) |  | > 100 µM (inactive) | > 100 µM (inactive) | > 100 µM (inactive) | > 100 µM (inactive) | > 100 µM (inactive) | > 100 µM (inactive) | 83.4 µM (inactive) | 25.1 µM (inactive) |  | > 100 µM (inactive) | > 100 µM (inactive) | > 100 µM (inactive) | > 100 µM (inactive) | > 100 µM (inactive) | > 100 µM (inactive) | > 100 µM (inactive)
COc1ccc(CN2C[C@H]3[C@@H](CC(=O)O[C@H]3C)CC2=O)cc1 |  | > 100 µM (inactive) | > 100 µM (inactive) | > 100 µM (inactive) | > 100 µM (inactive) | > 100 µM (inactive) |  | > 100 µM (inactive) | > 100 µM (inactive) | > 100 µM (inactive) | > 100 µM (inactive) | > 100 µM (inactive) | > 100 µM (inactive) | > 100 µM (inactive) | > 100 µM (inactive) | > 100 µM (inactive) |  |  | > 100 µM (inactive) | > 100 µM (inactive)
COc1cc([C@@H]2c3cc4c(cc3[C@@H](NC(=O)c3ccc(C#N)cc3)C3COC(=O)[C@@H]32)OCO4)cc(OC)c1O (stereo not given in full) | 0.26 µM (active) | 0.191 µM (active) | 0.198 µM (active) |  | 0.459 µM (active) | 2.43 µM (inactive) | 1.81 µM (inactive) | 0.0914 µM (active) | 2.58 µM (inactive) | 1.85 µM (inactive) | 0.316 µM (active) | 0.411 µM (active) |  | 2.29 µM (inactive) | 0.348 µM (active) | 0.233 µM (active) | 0.207 µM (active) | 0.249 µM (active) | 2.84 µM (inactive) | 1.63 µM (inactive)
Nc1nc(NCC2(CO)CCC2)cc(=O)[nH]1 | > 100 µM (inactive) | > 100 µM (inactive) | > 100 µM (inactive) | > 100 µM (inactive) | > 100 µM (inactive) | > 100 µM (inactive) |  |  | > 100 µM (inactive) | > 100 µM (inactive) | > 100 µM (inactive) | > 100 µM (inactive) | > 100 µM (inactive) | > 100 µM (inactive) | > 100 µM (inactive) | > 100 µM (inactive) | > 100 µM (inactive) |  | > 100 µM (inactive) | > 100 µM (inactive)
O=c1oc2ccc3ccccc3c2cc1-c1nnc(Nc2ccccc2)s1 |  |  | 31 µM (inactive) | 34.8 µM (inactive) | 22.5 µM (inactive) |  | 16.9 µM (inactive) | 13.2 µM (inactive) | > 100 µM (inactive) | 17.4 µM (inactive) | 23.8 µM (inactive) | 16 µM (inactive) | 52.5 µM (inactive) | 18.9 µM (inactive) | 38.4 µM (inactive) | 65.3 µM (inactive) | 50.8 µM (inactive) |  | 20.1 µM (inactive) | 51.5 µM (inactive)
CC#Cc1cc2c(cc1O)CC[C@@H]1[C@@H]2CC[C@]2(C)[C@@H](O)CC[C@@H]12 | 0.94 µM (active) | 4.54 µM (inactive) | 1.54 µM (inactive) | 0.685 µM (active) |  | 7.36 µM (inactive) | 19.9 µM (inactive) | 6.17 µM (inactive) | 1.76 µM (inactive) |  |  | 1.58 µM (inactive) | 0.885 µM (active) | 1.06 µM (active) | 2.4 µM (inactive) | 0.406 µM (active) | 6.15 µM (inactive) |  | 1.61 µM (inactive) | 0.344 µM (active)
CS/C(=C(\S)c1ccccc1)c1ccccc1 | > 100 µM (inactive) | > 100 µM (inactive) | > 100 µM (inactive) |  | > 100 µM (inactive) | > 100 µM (inactive) | > 100 µM (inactive) | > 100 µM (inactive) | > 100 µM (inactive) | > 100 µM (inactive) | > 100 µM (inactive) | > 100 µM (inactive) |  | > 100 µM (inactive) | > 100 µM (inactive) | > 100 µM (inactive) | > 100 µM (inactive) | > 100 µM (inactive) | > 100 µM (inactive) | > 100 µM (inactive)
Cc1cc(-c2no[n+]([O-])c2-c2cc(C)sc2S(C)(=O)=O)c(S(C)(=O)=O)s1 | > 100 µM (inactive) | > 100 µM (inactive) | > 100 µM (inactive) |  | > 100 µM (inactive) | > 100 µM (inactive) | > 100 µM (inactive) | > 100 µM (inactive) |  | > 100 µM (inactive) |  | > 100 µM (inactive) | > 100 µM (inactive) | > 100 µM (inactive) | 20.2 µM (inactive) | > 100 µM (inactive) | > 100 µM (inactive) | > 100 µM (inactive) | > 100 µM (inactive) | 83.4 µM (inactive)
COC(=O)C1(C(=O)OC)N=C(C)OC1c1ccccn1 (stereo not given) | > 100 µM (inactive) | > 100 µM (inactive) | > 100 µM (inactive) | > 100 µM (inactive) | > 100 µM (inactive) | > 100 µM (inactive) | > 100 µM (inactive) | > 100 µM (inactive) | > 100 µM (inactive) | > 100 µM (inactive) | > 100 µM (inactive) | > 100 µM (inactive) | > 100 µM (inactive) | > 100 µM (inactive) | > 100 µM (inactive) | > 100 µM (inactive) | > 100 µM (inactive) |  | > 100 µM (inactive) | > 100 µM (inactive)
